Experiments:
[1] = tested on: A549-ACE2 infected with SARS-CoV-2; assay: morphology score (similarity to uninfected cells); higher = more like uninfected cells; settings: 24 h
[2] = tested on: Vero E6; assay: relative viability EC50 (midpoint between 100% and the lowest measured viability); higher = less toxic; settings: 72 h
[3] = tested on: Calu-3; assay: as above; settings: 72 h
[4] = tested on: HepG2; assay: as above; settings: 72 h
[5] = tested on: Caco-2; assay: as above; settings: 72 h
[6] = tested on: A549-ACE2 infected with SARS-CoV-2; assay: SARS-CoV-2 infection rate relative to DMSO; higher = more infection; settings: 24 h
[7] = tested on: A549-ACE2; assay: phospholipidosis EC50; higher = less potent phospholipidosis inducer
[8] = tested on: Vero E6; assay: cell viability relative to DMSO; higher = less toxic; settings: 72 h
[9] = tested on: U2OS; assay: as above; settings: 72 h
[10] = tested on: Calu-3; assay: as above; settings: 72 h
[11] = tested on: HepG2; assay: as above; settings: 72 h
[12] = tested on: Caco-2; assay: as above; settings: 72 h
[13] = tested on: A549-ACE2 infected with SARS-CoV-2; assay: cell count relative to DMSO; higher = less toxic; settings: 24 h
[14] = tested on: Vero E6; assay: drug sensitivity score (DSS) for viability; higher = more toxic; extreme values may be limits of the assay; settings: 72 h
[15] = tested on: U2OS; assay: as above; settings: 72 h
[16] = tested on: Calu-3; assay: as above; settings: 72 h
[17] = tested on: HepG2; assay: as above; settings: 72 h
[18] = tested on: Caco-2; assay: as above; settings: 72 h
[19] = tested on: A549-ACE2; assay: drug-induced phospholipidosis relative to tamoxifen; higher = more phospholipidosis

CNCc1ccc(-c2cc(-c3nc(-c4ccc(S(=O)(=O)C(C)C)cc4)cnc3N)on2)cc1 [VE-822]
Settings	SARS-CoV-2 infection rate [%]	cell count [%]	cell viability [%]	morphology score	phospholipidosis EC50 [nM]
[1], 0.1 µM	–	–	–	0.32	–
[1], 0.3 µM	–	–	–	0.31	–
[1], 1 µM	–	–	–	0.57	–
[1], 3 µM	–	–	–	0.55	–
[6], 0.1 µM	89	–	–	–	–
[6], 0.3 µM	89	–	–	–	–
[6], 1 µM	51	–	–	–	–
[6], 3 µM	25	–	–	–	–
[7], 24 h	–	–	–	–	1160
[7], 48 h	–	–	–	–	3020
[7], 72 h	–	–	–	–	2970
[8], 1 nM	–	–	94.8	–	–
[8], 10 nM	–	–	95.7	–	–
[8], 100 nM	–	–	97.2	–	–
[8], 1000 nM	–	–	85.1	–	–
[8], 10000 nM	–	–	2.1	–	–
[9], 1 nM	–	–	101	–	–
[9], 10 nM	–	–	104	–	–
[9], 100 nM	–	–	96	–	–
[9], 1000 nM	–	–	89.9	–	–
[9], 10000 nM	–	–	67.4	–	–
[10], 1 nM	–	–	96.5	–	–
[10], 10 nM	–	–	93.2	–	–
[10], 100 nM	–	–	93.4	–	–
[10], 1000 nM	–	–	106	–	–
[10], 10000 nM	–	–	90	–	–
[11], 1 nM	–	–	111	–	–
[11], 10 nM	–	–	99	–	–
[11], 100 nM	–	–	94	–	–
[11], 1000 nM	–	–	53.3	–	–
[11], 10000 nM	–	–	19.1	–	–
[12], 1 nM	–	–	104	–	–
[12], 10 nM	–	–	103	–	–
[12], 100 nM	–	–	103	–	–
[12], 1000 nM	–	–	92.8	–	–
[12], 10000 nM	–	–	49.3	–	–
[13], 0.1 µM	–	107	–	–	–
[13], 0.3 µM	–	110	–	–	–
[13], 1 µM	–	128	–	–	–
[13], 3 µM	–	118	–	–	–

Settings	drug sensitivity score	relative viability EC50 [nM]
[2]	–	1970
[3]	–	> 10000
[4]	–	779
[5]	–	2040
[14]	7.9	–
[15]	2.6	–
[16]	0	–
[17]	10.1	–
[18]	3.9	–

drug-induced phospholipidosis [%], [19]
Settings	0.3 µM	0.833333 µM	3.33333 µM	6.66667 µM	10 µM	30 µM
24 h	13.9	27.3	86.2	113	119	42.3
48 h	14.2	28	89.1	124	148	62.7
72 h	16.7	20.1	102	143	163	63.3

From the supplement of paper PMC13380429
